Key:
[1] = target: T1, Adrenergic receptor alpha-2 (Rattus norvegicus, UniProt P22086+P19328+P22909); assay: Binding affinity against Alpha-2 adrenergic receptor in rat brain membrane using [3H]yohimbine as radioligand; format: cell membranes
T1 sequence (P22086 whole entry): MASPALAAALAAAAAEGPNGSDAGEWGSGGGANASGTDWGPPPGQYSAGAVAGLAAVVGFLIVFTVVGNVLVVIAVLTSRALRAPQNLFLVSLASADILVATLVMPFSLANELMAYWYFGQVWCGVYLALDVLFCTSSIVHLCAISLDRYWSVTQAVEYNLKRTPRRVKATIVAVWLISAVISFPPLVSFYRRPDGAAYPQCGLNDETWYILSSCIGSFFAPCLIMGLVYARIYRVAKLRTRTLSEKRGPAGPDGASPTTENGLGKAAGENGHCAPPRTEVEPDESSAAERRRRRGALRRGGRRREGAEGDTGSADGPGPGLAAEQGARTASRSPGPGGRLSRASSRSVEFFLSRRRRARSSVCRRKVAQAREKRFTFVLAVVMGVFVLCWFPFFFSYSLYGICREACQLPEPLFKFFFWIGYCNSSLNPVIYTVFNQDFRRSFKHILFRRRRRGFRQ
T1 sequence (P19328 whole entry): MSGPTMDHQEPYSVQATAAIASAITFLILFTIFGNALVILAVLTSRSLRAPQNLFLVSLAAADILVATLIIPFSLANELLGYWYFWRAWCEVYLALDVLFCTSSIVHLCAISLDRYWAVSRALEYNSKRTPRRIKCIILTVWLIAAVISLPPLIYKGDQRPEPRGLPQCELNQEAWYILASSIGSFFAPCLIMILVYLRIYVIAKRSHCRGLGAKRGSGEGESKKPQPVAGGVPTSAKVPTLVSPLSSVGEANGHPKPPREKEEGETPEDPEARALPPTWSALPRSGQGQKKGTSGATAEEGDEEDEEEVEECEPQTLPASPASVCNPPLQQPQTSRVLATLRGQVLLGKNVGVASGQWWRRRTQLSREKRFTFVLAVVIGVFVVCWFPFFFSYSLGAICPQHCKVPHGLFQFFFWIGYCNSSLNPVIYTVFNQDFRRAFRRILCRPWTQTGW
T1 sequence (P22909 whole entry): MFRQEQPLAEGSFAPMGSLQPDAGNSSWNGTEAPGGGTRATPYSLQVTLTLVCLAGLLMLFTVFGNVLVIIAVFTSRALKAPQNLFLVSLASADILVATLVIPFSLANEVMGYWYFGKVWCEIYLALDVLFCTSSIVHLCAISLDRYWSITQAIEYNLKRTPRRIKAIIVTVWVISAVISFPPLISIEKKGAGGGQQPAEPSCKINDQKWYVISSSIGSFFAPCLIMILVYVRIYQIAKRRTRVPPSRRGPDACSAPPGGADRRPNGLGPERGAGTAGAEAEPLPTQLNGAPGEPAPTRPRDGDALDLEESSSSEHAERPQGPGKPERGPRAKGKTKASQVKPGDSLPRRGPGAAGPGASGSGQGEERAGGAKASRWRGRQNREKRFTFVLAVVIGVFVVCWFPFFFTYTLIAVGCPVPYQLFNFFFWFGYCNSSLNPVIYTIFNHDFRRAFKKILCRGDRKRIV

[2] = target: T2, 5-hydroxytryptamine receptor 1A (Rattus norvegicus, UniProt P19327); assay: Binding affinity against 5-hydroxytryptamine 1A receptor in rat hippocampus membranes using [3H]8-OH-DPAT as radioligand; format: cell membranes, Membrane
T2 sequence (P19327 whole entry): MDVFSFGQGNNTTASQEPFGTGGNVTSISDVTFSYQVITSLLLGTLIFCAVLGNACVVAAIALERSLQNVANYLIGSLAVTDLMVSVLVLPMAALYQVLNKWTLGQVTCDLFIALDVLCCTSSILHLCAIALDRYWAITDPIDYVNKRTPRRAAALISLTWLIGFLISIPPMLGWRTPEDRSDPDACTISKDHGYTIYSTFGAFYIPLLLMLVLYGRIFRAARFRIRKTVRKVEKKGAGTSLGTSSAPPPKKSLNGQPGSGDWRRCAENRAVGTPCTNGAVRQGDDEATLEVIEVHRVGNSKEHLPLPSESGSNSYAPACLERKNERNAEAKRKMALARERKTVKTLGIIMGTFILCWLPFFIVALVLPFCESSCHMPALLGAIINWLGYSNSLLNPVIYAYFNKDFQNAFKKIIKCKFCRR

[3] = target: T3, Adrenergic receptor alpha-1 (Rattus norvegicus, UniProt P15823+P23944+P43140); assay: Binding affinity against Alpha-1 adrenergic receptor in rat brain membrane using [3H]prazosin as radioligand; format: cell membranes
T3 sequence (P15823 whole entry): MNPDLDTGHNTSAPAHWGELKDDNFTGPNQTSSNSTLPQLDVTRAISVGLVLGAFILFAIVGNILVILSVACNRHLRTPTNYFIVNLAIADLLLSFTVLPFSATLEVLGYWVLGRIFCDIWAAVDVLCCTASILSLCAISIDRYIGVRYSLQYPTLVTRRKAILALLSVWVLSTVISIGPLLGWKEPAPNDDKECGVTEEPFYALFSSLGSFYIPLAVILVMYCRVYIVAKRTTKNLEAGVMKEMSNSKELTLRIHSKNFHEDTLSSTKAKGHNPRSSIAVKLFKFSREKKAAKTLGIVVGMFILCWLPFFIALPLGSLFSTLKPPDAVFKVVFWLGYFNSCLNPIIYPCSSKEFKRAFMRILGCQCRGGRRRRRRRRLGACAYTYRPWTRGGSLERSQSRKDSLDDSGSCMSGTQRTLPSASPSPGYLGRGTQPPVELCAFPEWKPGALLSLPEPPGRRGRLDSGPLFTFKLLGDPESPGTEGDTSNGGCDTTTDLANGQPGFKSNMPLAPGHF
T3 sequence (P23944 whole entry): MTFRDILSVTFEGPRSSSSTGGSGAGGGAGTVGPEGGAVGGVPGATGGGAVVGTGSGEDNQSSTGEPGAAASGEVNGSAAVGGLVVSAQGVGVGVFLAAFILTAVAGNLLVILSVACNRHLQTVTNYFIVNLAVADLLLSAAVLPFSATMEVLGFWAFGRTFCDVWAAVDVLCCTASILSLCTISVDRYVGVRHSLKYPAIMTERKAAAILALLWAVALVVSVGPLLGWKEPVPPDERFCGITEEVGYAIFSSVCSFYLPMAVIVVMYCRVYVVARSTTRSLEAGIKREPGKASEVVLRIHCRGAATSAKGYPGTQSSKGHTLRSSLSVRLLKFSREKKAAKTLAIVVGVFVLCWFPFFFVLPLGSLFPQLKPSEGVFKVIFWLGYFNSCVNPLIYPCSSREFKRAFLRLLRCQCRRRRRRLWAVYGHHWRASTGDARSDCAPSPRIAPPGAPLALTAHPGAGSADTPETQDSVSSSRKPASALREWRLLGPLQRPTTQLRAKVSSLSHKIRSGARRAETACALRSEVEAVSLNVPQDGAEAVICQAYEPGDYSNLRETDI
T3 sequence (P43140 whole entry): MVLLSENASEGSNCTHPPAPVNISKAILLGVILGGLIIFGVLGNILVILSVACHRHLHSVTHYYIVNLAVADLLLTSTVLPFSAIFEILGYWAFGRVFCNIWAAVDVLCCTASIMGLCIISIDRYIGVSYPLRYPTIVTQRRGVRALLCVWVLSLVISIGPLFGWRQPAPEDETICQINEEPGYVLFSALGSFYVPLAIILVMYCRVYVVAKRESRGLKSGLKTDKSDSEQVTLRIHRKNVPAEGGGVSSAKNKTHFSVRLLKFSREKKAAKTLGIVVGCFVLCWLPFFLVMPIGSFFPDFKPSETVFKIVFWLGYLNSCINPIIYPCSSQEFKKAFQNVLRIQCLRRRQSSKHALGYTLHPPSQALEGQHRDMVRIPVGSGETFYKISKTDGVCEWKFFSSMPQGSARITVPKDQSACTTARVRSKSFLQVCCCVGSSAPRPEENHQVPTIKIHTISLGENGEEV

D(2) dopamine receptor = D(2) dopamine receptor (Rattus norvegicus, UniProt P61169); assay: Compound was evaluated for their affinity against Dopamine receptor D2 by displacing [3H]spiperone in rat striatal membrane; format: cell membranes, Striatum
[4] = target: Serotonin 2 (5-HT2) receptor (Rattus norvegicus, UniProt P30994+P08909+P14842); assay: Binding affinity against 5-hydroxytryptamine 2 receptor in rat brain using [3H]ketanserin as radioligand; format: tissue-based

Sequence of D(2) dopamine receptor (P61169 whole entry): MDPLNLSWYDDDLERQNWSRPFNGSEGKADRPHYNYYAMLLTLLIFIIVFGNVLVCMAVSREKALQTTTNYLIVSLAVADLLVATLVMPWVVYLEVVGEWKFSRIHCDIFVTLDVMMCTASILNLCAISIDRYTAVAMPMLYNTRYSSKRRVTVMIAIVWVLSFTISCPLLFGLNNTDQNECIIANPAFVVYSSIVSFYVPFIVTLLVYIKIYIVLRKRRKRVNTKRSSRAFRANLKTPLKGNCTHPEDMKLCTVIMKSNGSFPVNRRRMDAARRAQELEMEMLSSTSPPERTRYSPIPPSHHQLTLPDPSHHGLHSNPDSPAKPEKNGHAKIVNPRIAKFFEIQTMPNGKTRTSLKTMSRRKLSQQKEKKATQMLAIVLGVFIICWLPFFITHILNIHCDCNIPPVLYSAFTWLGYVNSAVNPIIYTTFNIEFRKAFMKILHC

IC50 [1]: 0.28 µM | IC50 [2]: 0.0077 µM | IC50 [3]: 0.22 µM | IC50 (D(2) dopamine receptor): 0.38 µM | IC50 [4]: 2.58 µM
SMILES: COc1ccccc1N1CCN(CCNC2CCCc3c(OC)cccc32)CC1 (stereo not given)

From ChEMBL document CHEMBL1129269, “1-aryl-4-[(1-tetralinyl)alkyl]piperazines: alkylamido and alkylamino derivatives. Synthesis, 5-HT1A receptor affinity, and selectivity. 3” (J Med Chem, 1996)
